According to patent publication US5824320A, “Cosmetic or pharmaceutical compositions containing, as active ingredient, mangiferine or its derivatives, in pure form or in plant extracts” (Laboratories de Biologie Vegetale Yves Rocher, priority 1994, dated 1998):

Assays:
pancreatic elastase = pancreatic elastase (Sus scrofa, UniProt P00772); assay: Anti-elastase activity (MeO Suc-Ala-Ala-Pro-Val-pNa substrate)
[1] = UV light absorption spectrum; type: physicochemical
[2] = Anti-free radical activity (NADH/PMS superoxide, NBT reduction); type: biochemical; settings: 1% solution in propylene glycol vs 0.1% rutin
From the text: Anti-Free Radical Activity (determined according to V. Ponti, M. U. Dianzani, K. Cheeseman and T. F. Slater, Cehm--Biol interaction, 23 (1978) 281-291).
Superoxide anions are generated by the reaction of NADH (Nicotinamide Adenine Dinucleotide in a reduced form) with PMS (Phenazine Methosulphate). The superoxide anions reduce NBT (Nitro Blue Tetrazolium) to diformazan which is violet-blue in colour.
The appearance of reduced NBT is monitored over time using a spectrophotometer. The results are represented in FIG. 3a.
The anti-free radical activity of the extracts is expressed as rutin equivalent for a 50% inhibition.
Anti-Free Radical Activity Determined in vitro (V. Ponti, M. U. Dianzani, K. Cheeseman and T. F. Slater, Chem. Biol. interaction, 23, 281-291, 1978).
The anti-free radical activity of the extracts is expressed in rutin equivalent for a 50% inhibition.

[3] = Photostability under continuous xenon lamp radiation (half-life time of absorption); settings: aqueous solution, compared with benzophenone 4 under the same conditions
Solubility = type: physicochemical
[4] = molecular target: Clostridium histolycum collagenase (Hathewaya histolytica, UniProt Q46085); assay: biochemical
Chain of Clostridium histolycum collagenase (Q46085 41-1021 limits assumed): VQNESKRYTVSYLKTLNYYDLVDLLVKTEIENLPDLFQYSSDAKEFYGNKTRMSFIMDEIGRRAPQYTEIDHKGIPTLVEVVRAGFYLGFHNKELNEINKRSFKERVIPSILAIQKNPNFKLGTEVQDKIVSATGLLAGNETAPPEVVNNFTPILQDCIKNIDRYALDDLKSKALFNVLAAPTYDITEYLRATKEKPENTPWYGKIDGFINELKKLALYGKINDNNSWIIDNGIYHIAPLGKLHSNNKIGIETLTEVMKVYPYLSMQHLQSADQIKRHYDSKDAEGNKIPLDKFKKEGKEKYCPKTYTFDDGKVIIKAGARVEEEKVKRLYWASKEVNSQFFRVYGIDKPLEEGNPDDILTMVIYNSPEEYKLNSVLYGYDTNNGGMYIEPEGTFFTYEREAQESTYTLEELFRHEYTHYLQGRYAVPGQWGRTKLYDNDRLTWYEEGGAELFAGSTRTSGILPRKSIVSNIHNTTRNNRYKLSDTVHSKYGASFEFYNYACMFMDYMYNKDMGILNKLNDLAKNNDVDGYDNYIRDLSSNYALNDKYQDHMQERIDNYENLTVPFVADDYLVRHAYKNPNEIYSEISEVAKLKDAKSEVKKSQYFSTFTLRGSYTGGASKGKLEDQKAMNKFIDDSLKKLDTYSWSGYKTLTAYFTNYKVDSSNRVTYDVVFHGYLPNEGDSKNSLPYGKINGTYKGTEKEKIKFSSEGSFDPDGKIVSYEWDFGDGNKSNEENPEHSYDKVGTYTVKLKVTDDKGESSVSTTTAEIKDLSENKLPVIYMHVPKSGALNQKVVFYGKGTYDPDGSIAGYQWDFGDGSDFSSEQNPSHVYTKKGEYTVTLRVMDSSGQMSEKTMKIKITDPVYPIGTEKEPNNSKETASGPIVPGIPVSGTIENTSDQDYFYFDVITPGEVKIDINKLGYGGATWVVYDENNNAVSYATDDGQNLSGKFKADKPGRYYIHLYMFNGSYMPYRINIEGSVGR

hyaluronidase = assay: Anti-hyaluronidase activity (N-acetylglucosamine liberated from hyaluronic acid); type: biochemical; settings: Mangifera extract 1% dry extract; heparin Sigma 10 USP/ml
Protocol: Anti-Hyaluronidase Activity (determined according to Jose L. Reissig, Jack L. Stominger and Luis F. Leloior, 05.12.1955).
The N-acetylglucosamine liberated after 45 minutes during the reaction of the hyaluronidase with hyaluronic acid is measured using a spectrophotometer. A process for reducing the anhydrous sugars, which in acid medium are converted to furan derivatives, is used; the said sugars react with para-dimethylaminobenzaldehyde to form a coloured complex.
The activity is expressed in μg of N-acetylglucosamine formed per minute.
The anti-hyaluronidase activity is expressed as a quantity of extract for obtaining 50% inhibition.
Anti-Hyaluronidase Activity Determined in vitro (Jose L. Reissig, Jack L. Strominger and Luis F. Leloir, J. Biol.--Chem. 217, 960-966, 1953).
The anti-hyaluronidase activity is expressed as quantity of extract for obtaining 50% inhibition. The results are plotted in Figure 5b.

Chain of pancreatic elastase (P00772 27-266): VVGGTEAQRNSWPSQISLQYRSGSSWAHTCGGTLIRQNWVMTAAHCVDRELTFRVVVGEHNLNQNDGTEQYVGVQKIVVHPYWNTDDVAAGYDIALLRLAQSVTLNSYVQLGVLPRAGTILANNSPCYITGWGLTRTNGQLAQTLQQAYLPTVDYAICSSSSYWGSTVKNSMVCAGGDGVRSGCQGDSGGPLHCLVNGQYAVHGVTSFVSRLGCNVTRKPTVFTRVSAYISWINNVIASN

Molecule	IC50 (pancreatic elastase)	UV absorption maximum corresponding to the zone of UVA rays ([1]; UVA zone)	UV absorption maximum corresponding to UVB rays ([1]; UVB zone)	anti-free radical activity relative to rutin reference solution [2]	phototoxicity (Phototoxicity check)	photostability (resistance to irradiation, half-life time) [3]	solubility in alkaline liquids (Solubility; alkaline liquids)	solubility in cold water (Solubility; cold water)	IC50 [4]	half-inhibition volume IV50 (anti-hyaluronidase) (hyaluronidase)
O=c1c2cc(O)c(O)cc2oc2cc(O)c([C@@H]3O[C@H](CO)[C@@H](O)[C@H](O)[C@H]3O)c(O)c12 [mangiferine, C-glucoside of 1,3,6,7-tetrahydroxy xanthone]	~23.7 µM	around 360 nm	around 320 nm	4 times	absence of phototoxicity	equally resistant to irradiation, with a very similar half-life time	soluble	very sparingly soluble	~118 µM	–
heparin	–	–	–	–	–	–	–	–	–	380 µL
